Test [1] deals with caspase-8. The test can be described thus: Western blot, caspase-8. The settings on record: 5 µM, LoVo cells. It is filed as cell-based, human. On the procedure: (§1) Lovo cells (1.5 × 10^4 cells/cm^2) were seeded in a T75 flask and incubated at 37 °C and 5% CO2 atmosphere overnight. The seeded cells were then treated with selected compounds at 5 µM of 2e for 24 h, 48 h, and 72 h. After treatment, the cells were harvested and lysed with phenylmethanesulfonyl fluoride (PMSF)-containing cell lysis buffer. The lysates were then centrifuged at 13,300× g for 15 min and the supernatant was collected. Protein concentrations of all samples were determined using a BCA assay kit (Thermo Scientific Inc., Waltham, MA, USA). Equal amounts of protein were electrophoresed in 12% and 20% SDS-polyacrylamide gel (SDS-PAGE), and electro-transferred onto a 0.22-μm polyvinyldene difluoride membrane. Each membrane was blocked with 5% (w/v) skim milk at room temperature for 1 h followed by overnight incubation with specific primary antibodies (1:1000) at 4 °C. Subsequently, the respective membrane was washed thrice with TBST (0.05% (v/v) of tween-20) followed by 1 h incubation with secondary antibody (1:10,000). Upon completion, the membrane was washed thrice with 1X Tris-Buffered Saline, 0.1% Tween® 20 Detergent (TBST) and the immune reactive bands were developed using SuperSignal West Dura Extended Duration Substrate (Thermo Scientific Inc., Waltham, MA, USA). […]
(In general: A western blot detects proteins with antibodies after separation by electrophoresis.)

For test [2], the system named is RKO cells. Briefly: MTT cytotoxicity assay, RKO cells. It is filed as cell-based. The settings on record: Homo sapiens, 72 h post-treatment, read-out: IC50 (µM) BRAF RKO. As for the experimental part: (§2) The in-vitro cytotoxic activity of the synthesized compounds on seven human CRC cell lines including KRAS (T84, SW620, LoVo) and BRAF (HT29, NCI-H508, RKO and LS411N) mutated cells were determined by MTT assay as previously described. The IC50 values obtained are summarized in Table 2 in which 5-FU and normal human dermal fibroblasts (NHDF) were used as controls. Meanwhile, a heatmap (Figure 3) was also generated using GraphPad Prism v7.0 (GraphPad Software, La Jolla, CA, USA) to visualize the cytotoxic trends of synthesized compounds graphically.
(§3) A panel of KRAS (T84, SW620 and LoVo) and BRAF (HT29, NCI-H508, RKO and LS411N) mutated human CRC cell lines were grown in Dulbecco’s modified Eagle’s medium (DMEM) containing 10% fetal bovine serum (FBS) and 1% penicillin/streptomycin at 37 °C under 5% CO2 while NHDF cells were cultured in DMEM with 5% FBS under the same condition. The culture medium was replenished every two days until the cells reached 80–90% confluency for further usage. All cell lines (T84, ATCC®CCL-248™; SW620, ATCC®CCL-227™; LoVo, ATCC®CCL-229™; HT-29, ATCC®HTB-38; NCI-H508, ATCC®CCL-253™; RKO, ATCC®CRL-2577; LS411N, ATCC®CRL-2159; NHDF, ATCC® PCS-201-010™) were purchased from American Type culture Collections (ATCC, Manassas, VA, USA).
(§4) LoVo cells (1.5–5 × 10^3 cells/well) were seeded into a 96 well plate and incubated at 37 °C and 5% CO2 atmosphere for 24 h. On the following day, the cell media were replaced with 100 µL of test compounds at various concentration. The final concentration of DMSO in the well is 0.1%. After 72 h of incubation, culture medium was removed and 100 µL of MTT (thiazoyl blue tertrazolium bromide) solution (0.5 mg/mL in culture media) was added. The resultant plates were then further incubated at 37 °C for 4 h. Upon completion, the MTT solution was removed and the formazan salts formed were dissolved in 100 µL of DMSO. The absorbance was recorded with a microplate reader at 570 nm. The IC50 values of tested compounds were calculated from three independent experiments.
For orientation: Formazan colour is commonly taken as a measure of viable cells.

Test [3] deals with Mcl-1. Briefly: Western blot, Mcl-1. Type of test: cell-based, human. The settings on record: 5 µM, LoVo cells, up to 72 h. On the procedure:
as §1

In test [4] the test system is LoVo cells. The test can be described thus: MTT cytotoxicity assay, LoVo cells. It is filed as cell-based. The settings on record: Homo sapiens, 72 h post-treatment, read-out: IC50 (µM) KRAS LoVo. On the procedure:
as §2, §3, §4

Test [5] concerns normal human dermal fibroblasts (NHDF). Briefly: MTT cytotoxicity assay, normal human dermal fibroblasts. Type of test: cell-based. The settings on record: 72 h post-treatment. On the procedure: as §2, §3, §4
The subject of test [6] is LoVo cells. Briefly: Colony formation assay. Type of test: cell-based, human. The settings on record: 0.625-5 µM, 7 days post-treatment. As for the experimental part:
LoVo cells (1 × 10^3 cells/well) were seeded into a 6-well plate and incubated at 37 °C and 5% CO2 atmosphere overnight. After incubation, the culture media were replaced with 3 mL of test compounds at various concentration and further incubated for seven days. Upon completion, cells were washed with PBS and fixed with 4% paraformaldehyde for 15 min followed by cell staining with 0.5% (w/v) crystal violet for 20 min. The resultant plates were then washed with tap water and dried at room temperature. Upon drying, the plate image was photographed.

For test [7], the system named is Bcl-2. The test can be described thus: Western blot, Bcl-2. Type of test: cell-based, human. The settings on record: 5 µM, LoVo cells, as early as 24 h post-treatment. On the procedure:
as §1

In test [8] the test system is LoVo cells. The test can be described thus: Cell apoptosis analysis (Annexin V-PE/7-AAD flow cytometry). Type of test: cell-based, human. On the procedure:
LoVo cells (1 × 10^5 cells/well) were seeded into a 6-well plate and incubated at 37 °C and 5% CO2 atmosphere overnight. The seeded cells were then treated with different concentrations of tested compounds for 24, 48 and 72 h. After treatments, cells were trypsinized and washed with PBS followed by the addition of 1× binding buffer (500 μL), Annexin V-PE (5 μL) and 7-AAD (5 μL) solutions. The resulting mixture was then incubated in the dark at 4 °C for 20 min. Upon completion, the mixture was analysed with a flow-cytometer at the PE and APC channel. The values presented are the means ± SD of three independent experiments.
For orientation: A flow cytometer gives signals particle by particle.

Test [9] relates to LS411N cells. The test can be described thus: MTT cytotoxicity assay, LS411N cells. Type of test: cell-based. The settings on record: Homo sapiens, LS-411N, 72 h post-treatment, read-out: IC50 (µM) BRAF LS411N. As for the experimental part: as §2, §3, §4
The subject of test [10] is HT29 cells. Briefly: MTT cytotoxicity assay, HT29 cells. It is filed as cell-based. The settings on record: Homo sapiens, HT-29, 72 h post-treatment, read-out: IC50 (µM) BRAF HT29. On the procedure:
as §2, §3, §4

For test [11], the system named is Bax. Briefly: Western blot, Bax. It is filed as cell-based, human. The settings on record: 5 µM, LoVo cells, detectable only after 48 h. As for the experimental part: as §1

The IC50 is the concentration needed to halve the response being measured. `O=C1C(=Cc2ccccc2Br)CSCC1=Cc1ccccc1Br` [Compound 2e, 3,5-Bis(2-bromobenzylidene)tetrahydro-4H-thiopyran-4-one]: the caspase-8 cleavage entry in test [1] is “unaffected”. Moreover, the IC50 came to 1.2 µM in test [2]; 1 µM in [4]; 7100 nM in test [5]; 1.3 µM in test [9]; 2.1 µM in [10]. In test [3], the Mcl-1 expression entry was “remained unaffected”. Moreover, the “colony formation of LoVo cells” value in test [6] is “inhibit the colony formation of LoVo cells in a dose-dependent manner”. Besides, in test [7], the Bcl-2 expression entry was “significantly inhibited”. Besides, the “lowest in vitro effective dose against LoVo cells” value in [8] came out at 2.5 µM. Also, the “cellular apoptosis (annexin V)” value in test [8] (0.625 and 1.25 µM) was “minimal insignificant effects”; in test [8] (2.5 and 5 µM, 24-72 h) it was “could induce cellular apoptosis”. Moreover, the Bax expression result in test [11] is reported as “up-regulation”.

These data come from article PMC7504466, “In-Vitro and In-Silico Evaluations of Heterocyclic-Containing Diarylpentanoids as Bcl-2 Inhibitors Against LoVo Colorectal Cancer Cells” (Molecules, 2020).
